The record followed here is patent publication US20250122160A1, “PROTEIN TYROSINE PHOSPHATASE INHIBITORS AND METHODS OF USE THEREOF” (Calico Life Sciences LLC, priority 0001, published 2025).

Molecules are shown by their SMILES. Bounds are passed on as bounds.

Assay [1] has as its target T1, His tagged PTPN2 (TC45) protein (Homo sapiens, UniProt P17706).
T1 construct: made in house
T1 sequence (P17706 with tags, fused parts or gaps isoform P17706-2): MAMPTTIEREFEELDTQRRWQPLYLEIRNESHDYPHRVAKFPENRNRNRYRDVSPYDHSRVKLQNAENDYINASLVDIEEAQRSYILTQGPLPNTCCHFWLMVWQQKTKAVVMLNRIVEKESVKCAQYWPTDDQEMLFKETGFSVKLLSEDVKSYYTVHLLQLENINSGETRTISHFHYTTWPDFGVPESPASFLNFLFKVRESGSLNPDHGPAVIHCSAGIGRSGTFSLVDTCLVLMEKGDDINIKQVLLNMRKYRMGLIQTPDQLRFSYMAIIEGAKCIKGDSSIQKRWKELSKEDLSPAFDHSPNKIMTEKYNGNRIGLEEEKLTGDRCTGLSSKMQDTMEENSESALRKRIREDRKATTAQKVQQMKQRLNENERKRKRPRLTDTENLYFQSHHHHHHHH
As to the kind of experiment: Mobility shift assay (MSA) to determine potency of PTPN2 inhibitors. Particulars: 0.5 nM enzyme, 2 μM substrate. The format is biochemical. How it is done:
Compound activity was determined using in house His tagged PTPN2 (TC45) protein (SEQ ID NO: 1) in an in vitro enzymatic reaction. The enzymatic assay used to determine activity was a mobility shift assay using a LabChip EZ Reader by Caliper Life Sciences. The enzymatic reaction was carried out in assay buffer (50 mM HEPES pH 7.5, 1 mM EGTA, 10 mM EDTA, 0.01% Tween® 20, and 2 mM DTT). The compounds were dispensed on a white 384 well ProxiPlate™ (PerkinElmer Catalog #6008289) plate using the Labcyte Echo at varying concentrations (12 point, 1:3 dilution). The enzyme (at 0.5 nM) was incubated with compound for 10 minutes at room temperature. Then the substrate (phosphorylated insulin receptor probe sequence: ((OG488)-(NH—CH2—CH2—O—CH2—CH2—O—CH2—CO)-T-R-D-I-(PY)-E-T-D-Y—Y—R—K—K—NH2) (SEQ ID NO: 2) was added at 2 μM to the plates and incubated for another 10 minutes at room temperature. Finally, a quench solution (water and 4-bromo-3-(2-oxo-2-propoxyethoxy)-5-(3-{[1-(phenylmethanesulfonyl)piperidin-4-yl]amino}phenyl)thiophene-2-carboxylic acid) was added to the plates, which were then run on the EZ Reader (excitation 488 nm, emission 530 nm) to measure % conversion (the amount of phosphorylated substrate which was de-phosphorylated by PTPN2). […] The % inhibition was then used to calculate the IC50 values.

The target of assay [2] is T2, His tagged full-length PTPN1 protein (Homo sapiens, UniProt P18031).
T2 construct: made in house
T2 sequence (P18031 with tags, fused parts or gaps): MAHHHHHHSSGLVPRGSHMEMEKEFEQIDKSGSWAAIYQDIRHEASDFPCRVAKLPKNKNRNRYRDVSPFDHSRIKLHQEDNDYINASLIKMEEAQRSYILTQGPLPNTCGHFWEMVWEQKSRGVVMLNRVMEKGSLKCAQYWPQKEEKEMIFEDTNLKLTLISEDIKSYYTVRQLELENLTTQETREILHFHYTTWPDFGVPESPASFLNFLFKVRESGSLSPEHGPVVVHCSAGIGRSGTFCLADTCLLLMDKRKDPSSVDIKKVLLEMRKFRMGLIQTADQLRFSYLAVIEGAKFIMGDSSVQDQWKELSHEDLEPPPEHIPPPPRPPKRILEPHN
Briefly: Mobility shift assay (MSA) to determine potency of PTPN1 inhibitors. Type of assay: biochemical. Particulars: 0.5 nM enzyme, 2 μM substrate. Here is the method: Compound activity was determined using in house His tagged full-length PTPN1 protein (SEQ ID NO: 3) in an in vitro enzymatic reaction. The enzymatic assay used to determine activity is a mobility shift assay using a LabChip EZ Reader by Caliper Life Sciences. The enzymatic reaction was carried out in assay buffer (50 mM HEPES pH 7.5, 1 mM EGTA, 10 mM EDTA. 0.01% Tween® 20, and 2 mM DTT). The compounds were dispensed on a white 384 well ProxiPlate™ (PerkinElmer Cat #6008289) plate using a Labcyte Echo® liquid handler at varying concentrations (12 point, 1:3 dilution). The enzyme (at 0.5 nM) was incubated with compound for 10 minutes at room temperature. Then the substrate (phosphorylated insulin receptor probe sequence: ((OG488)-(NH—CH2—CH2—O—CH2—CH2—O—CH2—CO)-T-R-D-I-(PY)-E-T-D-Y—Y—R—K—K—NH2) (SEQ ID NO: 2) was added at 2 μM to the plates and incubated for another 10 minutes at room temperature. Finally, a quench solution (water and 4-bromo-3-(2-oxo-2-propoxyethoxy)-5-(3-{[1-(phenylmethanesulfonyl)piperidin-4-yl]amino}phenyl)thiophene-2-carboxylic acid) was added to the plates, which were then run on the EZ Reader (excitation 488 nm, emission 530 nm) to measure % conversion (the amount of phosphorylated substrate which was de-phosphorylated by PTPN1). […] The % inhibition was then used to calculate the IC50 values.

Regarding `CC1(C)CCc2c(cc(O)c(N3CC(=O)NS3(=O)=O)c2F)O1` [Compound 112], the IC50 in assay [1] and in assay [2] was more than 100 nM in each case.
Consider `CC1(C)CCc2cc(O)c(N3CC(=O)NS3(=O)=O)c(F)c2O1` [Compound 113], for which the IC50 in assay [1] and in assay [2] was more than 100 nM each time.
For the compound `O=C1CN(c2c(O)cc3c(c2F)CNCC3)S(=O)(=O)N1` [Compound 143, 5-(8-fluoro-6-hydroxy-1,2,3,4-tetrahydroisoquinolin-7-yl)-1λ^6,2,5-thiadiazolidine-1,1,3-trione], the figures for the IC50 in assay [1] and in assay [2] were 10 to 100 nM and more than 100 nM, respectively.
The like results for `CC(C)CCC(=O)N1CCc2cc(O)c(N3CC(=O)NS3(=O)=O)c(F)c2C1` [Compound 144] were, in that order, 1 to 10 nM and 10 to 100 nM.
In the same order, the values of `CC(C)CCCN1CCc2cc(O)c(N3CC(=O)NS3(=O)=O)c(F)c2C1` [Compound 145] are 10 to 100 nM and 10 to 100 nM.
In the same order, the values of `O=C1CN(c2c(O)cc3c(c2F)CN(CCCCC(F)(F)F)CC3)S(=O)(=O)N1` [Compound 153, 5-[8-fluoro-6-hydroxy-2-(5,5,5-trifluoropentyl)-1,2,3,4-tetrahydroisoquinolin-7-yl]-1λ^6,2,5-thiadiazolidine-1,1,3-trione] are 10 to 100 nM and 10 to 100 nM.
Regarding `O=C1CN(c2c(O)cc3c(c2F)CC(NCc2ccccn2)CC3)S(=O)(=O)N1` (centres unmarked) [Compound 155], the IC50 in assay [1] and in assay [2] was 10 to 100 nM each time.
Take `CCCCC(=N)N1CCc2cc(O)c(N3CC(=O)NS3(=O)=O)c(F)c2C1` [Compound 158]: the IC50 (as a rule, the concentration that gives 50% inhibition) in assay [1] was 10 to 100 nM; in assay [2] it was more than 100 nM.
Turning to `O=C1CN(c2c(O)cc3c(c2F)CN(CCCC2CC2)CC3)S(=O)(=O)N1` [Compound 159], the half-inhibitory concentration (IC50) in assay [1] and in assay [2] was 10 to 100 nM in each case.
On to `O=C1CN(c2c(O)cc3c(c2F)CN(C2CC4(CNC4)C2)CC3)S(=O)(=O)N1` [Compound 160], for which the concentration for half-maximal inhibition (IC50) in assay [1] and in assay [2] was 10 to 100 nM in each case.
In the case of `O=C1CN(c2c(O)cc3c(c2F)CN(CCCCCC(F)(F)F)CC3)S(=O)(=O)N1` [Compound 161], the IC50 in assay [1] is 1 to 10 nM; in assay [2], 10 to 100 nM.
Consider `O=C1CN(c2c(O)cc3c(c2F)CN(CC2CC(F)(F)C2)CC3)S(=O)(=O)N1` [Compound 162], for which the IC50 in assay [1] was 1 to 10 nM; in assay [2], 10 to 100 nM.
Turning to `O=C1CN(c2c(O)cc3c(c2F)CN(C2CNC2)CC3)S(=O)(=O)N1` [Compound 163], the IC50 in assay [1] is 10 to 100 nM; in assay [2] it was more than 100 nM.
On to `CC(C)NCCN1CCc2cc(O)c(N3CC(=O)NS3(=O)=O)c(F)c2C1` [Compound 164], for which the IC50 in assay [1] was 10 to 100 nM; in assay [2] it was more than 100 nM.
In the same order, the values of `O=C1CN(c2c(O)cc3c(c2F)CN(CC2CNC2)CC3)S(=O)(=O)N1` [Compound 165] are 10 to 100 nM and 10 to 100 nM.
Regarding `O=C1CN(c2c(O)cc3c(c2F)CN(CC2CC4(CC4)C2)CC3)S(=O)(=O)N1` [Compound 168], the IC50 in assay [1] and in assay [2] was 10 to 100 nM in each case.
In the case of `CC(C)(O)CCN1CCc2cc(O)c(N3CC(=O)NS3(=O)=O)c(F)c2C1` [Compound 170], the 50% inhibitory concentration (IC50) in assay [1] is 10 to 100 nM; in assay [2], more than 100 nM.
In the same order, the values of `O=C1CN(c2c(O)cc3c(c2F)CN(CCC2CCCCC2)CC3)S(=O)(=O)N1` [Compound 179] are 10 to 100 nM and 10 to 100 nM.
Turning to `CC(C)C1CN(C2CCc3cc(O)c(N4CC(=O)NS4(=O)=O)c(F)c3C2)CCO1` (centres unmarked) [Compound 181], the IC50 in assay [1] and in assay [2] was 1 to 10 nM throughout.
As for `O=C1CN(c2c(O)cc3c(c2F)CN(Cc2ccccn2)CC3)S(=O)(=O)N1` [Compound 184], the IC50 in assay [1] and in assay [2] was more than 100 nM throughout.
On to `O=C1CN(c2c(O)cc3c(c2F)CN(c2ccccn2)CC3)S(=O)(=O)N1` [Compound 191], for which the IC50 in assay [1] and in assay [2] was 10 to 100 nM throughout.
Regarding `O=C1CN(c2c(O)cc3c(c2F)CN(CCC2CC(F)(F)C2)CC3)S(=O)(=O)N1` [Compound 192], the half-maximal inhibitory concentration (IC50) in assay [1] and in assay [2] was 10 to 100 nM throughout.
On to `O=C1CN(c2c(O)cc3c(c2F)CN(CCN2CCCC2)CC3)S(=O)(=O)N1` [Compound 193], for which the half-inhibitory concentration (IC50) in assay [1] was more than 100 nM; in assay [2], 10 to 100 nM.
`Cc1n[nH]c(C)c1CCN1CCc2cc(O)c(N3CC(=O)NS3(=O)=O)c(F)c2C1` [Compound 194]: the IC50 in assay [1] and in assay [2] was 1 to 10 nM each time.
In the case of `O=C1CN(c2c(O)cc3c(c2F)CN(CCCC2CCOCC2)CC3)S(=O)(=O)N1` [Compound 196], the IC50 in assay [1] and in assay [2] was 10 to 100 nM each time.
As for `N[C@@H]1CCc2cc(O)c(N3CC(=O)NS3(=O)=O)c(F)c2C1` [Compound 198], the IC50 in assay [1] is 10 to 100 nM; in assay [2] it was more than 100 nM.
Consider `O=C1CN(c2c(O)cc3c(c2F)C[C@H](NCCC2CCCC2)CC3)S(=O)(=O)N1` [Compound 200, 5-{(7R)-7-[(2-cyclopentylethyl)amino]-1-fluoro-3-hydroxy-5,6,7,8-tetrahydronaphthalen-2-yl}-1λ^6,2,5-thiadiazolidine-1,1,3-trione], for which the IC50 in assay [1] and in assay [2] was less than 1 nM each time.
In the case of `O=C1CN(c2c(O)cc3c(c2F)C[C@H](NCCC2CCC2)CC3)S(=O)(=O)N1` [Compound 201], the IC50 in assay [1] and in assay [2] was less than 1 nM throughout.
In the case of `O=C1CN(c2c(O)cc3c(c2F)C[C@H](NCCC2CC(F)(F)C2)CC3)S(=O)(=O)N1` [Compound 202], the IC50 in assay [1] was less than 1 nM; in assay [2] it was 1 to 10 nM.
In the case of `CCC(CC)CCN[C@@H]1CCc2cc(O)c(N3CC(=O)NS3(=O)=O)c(F)c2C1` [Compound 204], the IC50 in assay [1] is less than 1 nM; in assay [2], 1 to 10 nM.
`CC(C)CCNC(=O)N1CCc2cc(O)c(N3CC(=O)NS3(=O)=O)c(F)c2C1` [Compound 205]: the IC50 fell in the range of 1 to 10 nM in assay [1] and 10 to 100 nM in assay [2].
In the same order, the values of `CC(C)CNC(=O)N1CCc2cc(O)c(N3CC(=O)NS3(=O)=O)c(F)c2C1` [Compound 206] are 10 to 100 nM and 10 to 100 nM.
For `O=C1CN(c2c(O)cc3c(c2F)CN(CCCc2cccnc2)CC3)S(=O)(=O)N1` [Compound 207], the IC50 in assay [1] and in assay [2] was 10 to 100 nM in each case.
For the compound `Cc1noc(C)c1CN1CCc2cc(O)c(N3CC(=O)NS3(=O)=O)c(F)c2C1` [Compound 208], the IC50 in assay [1] and in assay [2] was 10 to 100 nM each time.
With `Cc1nn(C)c(C)c1CCN1CCc2cc(O)c(N3CC(=O)NS3(=O)=O)c(F)c2C1` [Compound 209], the IC50 in assay [1] and in assay [2] was 1 to 10 nM each time.
Consider `O=C1CN(c2c(O)cc3c(c2F)CN(CCc2cncnc2)CC3)S(=O)(=O)N1` [Compound 210], for which the IC50 in assay [1] was more than 100 nM; in assay [2], 10 to 100 nM.
In the same order, the values of `Cc1noc(C)c1CCN1CCc2cc(O)c(N3CC(=O)NS3(=O)=O)c(F)c2C1` [Compound 211] are 1 to 10 nM and 1 to 10 nM.
